Test results: ChEMBL document CHEMBL1201862, “PubChem BioAssay data set” (2004)
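A five-concentration, 48-hour dose response in 96-well plates underlies each endpoint, interpolated linearly between surrounding concentrations. GI50: concentration for 50% inhibition of growth.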 Activity calls are given as the source filed them. No stated cut-off is given here; in the data, active = GI50 up to about 1.1 µM and inactive = higher.

Columns and labels:
Test in all cases: inhibition of tumour cell growth, NCI panel, 48 h
786-0 = system: 786-0
BT-549 = system: BT-549
HCC 2998 = system: HCC 2998
HOP-92 = system: HOP-92
Hs-578T = system: Hs-578T
LOX IMVI = system: LOX IMVI
MDA-N = system: MDA-N
NCI-H226 = system: NCI-H226
NCI-H460 = system: NCI-H460
NCI-H522 = system: NCI-H522
OVCAR-8 = system: OVCAR-8
PC-3 = system: PC-3
RXF 393 = system: RXF 393
SF-295 = system: SF-295
SK-MEL-28 = system: SK-MEL-28
SK-OV-3 = system: SK-OV-3
SN12C = system: SN12C
SR = system: SR
SW-620 = system: SW-620
UACC-62 = system: UACC-62

Measured: GI50

C[N+](C)(C)c1ccc(C(N)C(=O)O)cc1 (stereo not given)
inactive: 786-0 > 100 µM | BT-549 > 100 µM | HCC 2998 > 100 µM | HOP-92 > 100 µM | Hs-578T > 100 µM | LOX IMVI > 100 µM | MDA-N > 100 µM | NCI-H226 > 100 µM | NCI-H460 > 100 µM | NCI-H522 > 100 µM | OVCAR-8 > 100 µM | PC-3 > 100 µM | RXF 393 > 100 µM | SF-295 > 100 µM | SK-MEL-28 > 100 µM | SK-OV-3 > 100 µM | SN12C > 100 µM | SR > 100 µM | SW-620 > 100 µM | UACC-62 > 100 µM

Cc1nc(O)nc2nc3ccc(Cl)cc3c(NCCNCCO)c12
inactive: 786-0 8.75 µM | BT-549 16.7 µM | HCC 2998 13.6 µM | HOP-92 11.4 µM | Hs-578T 13.5 µM | LOX IMVI 8.83 µM | MDA-N 12.8 µM | NCI-H226 13.1 µM | NCI-H460 12.5 µM | NCI-H522 3.21 µM | OVCAR-8 9.46 µM | PC-3 13.7 µM | RXF 393 14.6 µM | SF-295 16.3 µM | SK-MEL-28 17.5 µM | SK-OV-3 11.4 µM | SN12C 7.18 µM | SR 8.07 µM | SW-620 6.87 µM | UACC-62 12 µM

COc1ccc(-c2cc(-c3ccc(C)cc3)n(C3OC(COC(C)=O)C(OC(C)=O)C(OC(C)=O)C3OC(C)=O)c(=S)c2C#N)cc1 (stereo not given)
inactive: 786-0 > 100 µM | BT-549 > 100 µM | HCC 2998 > 100 µM | HOP-92 > 100 µM | Hs-578T 36.6 µM | LOX IMVI > 100 µM | MDA-N > 100 µM | NCI-H226 > 100 µM | NCI-H460 > 100 µM | NCI-H522 > 100 µM | OVCAR-8 > 100 µM | PC-3 > 100 µM | RXF 393 79.4 µM | SF-295 > 100 µM | SK-MEL-28 > 100 µM | SK-OV-3 > 100 µM | SN12C > 100 µM | SR > 100 µM | SW-620 > 100 µM | UACC-62 > 100 µM

CC12CCC(C(Nc3ccccn3)C1=O)C2(C)C (stereo not given)
inactive: 786-0 > 100 µM | BT-549 > 100 µM | HCC 2998 29.9 µM | HOP-92 > 100 µM | Hs-578T > 100 µM | LOX IMVI > 100 µM | MDA-N > 100 µM | NCI-H226 > 100 µM | NCI-H460 > 100 µM | NCI-H522 > 100 µM | OVCAR-8 > 100 µM | PC-3 > 100 µM | RXF 393 > 100 µM | SF-295 > 100 µM | SK-MEL-28 > 100 µM | SK-OV-3 > 100 µM | SN12C > 100 µM | SR > 100 µM | SW-620 > 100 µM | UACC-62 > 100 µM

Nc1nc(Cl)c(N)c(NCC2(CO)CCC2)n1
inactive: 786-0 > 100 µM | BT-549 > 100 µM | HCC 2998 > 100 µM | HOP-92 76 µM | Hs-578T > 100 µM | LOX IMVI > 100 µM | MDA-N > 100 µM | NCI-H226 > 100 µM | NCI-H460 > 100 µM | NCI-H522 69.7 µM | OVCAR-8 > 100 µM | PC-3 > 100 µM | RXF 393 > 100 µM | SF-295 > 100 µM | SK-MEL-28 > 100 µM | SK-OV-3 > 100 µM | SN12C > 100 µM | SR > 100 µM | SW-620 > 100 µM | UACC-62 > 100 µM
